Assay results from ChEMBL document CHEMBL4433240, “Identification and characterization of potent and selective inhibitors targeting protein tyrosine phosphatase 1B (PTP1B)” (Bioorg Med Chem Lett, 2019).
Activity calls are given as the source filed them. No cut-off for these calls is given here.

Experiments:
[1] = target: T1, Tyrosine-protein phosphatase non-receptor type 2 (Homo sapiens, UniProt P17706); experiment: Inhibition of human FLAG-tagged TCPTP (1 to 296) expressed in Escherichia coli using fluorescein diphosphate as substrate by fluorescence based method
T1 sequence (P17706 whole entry): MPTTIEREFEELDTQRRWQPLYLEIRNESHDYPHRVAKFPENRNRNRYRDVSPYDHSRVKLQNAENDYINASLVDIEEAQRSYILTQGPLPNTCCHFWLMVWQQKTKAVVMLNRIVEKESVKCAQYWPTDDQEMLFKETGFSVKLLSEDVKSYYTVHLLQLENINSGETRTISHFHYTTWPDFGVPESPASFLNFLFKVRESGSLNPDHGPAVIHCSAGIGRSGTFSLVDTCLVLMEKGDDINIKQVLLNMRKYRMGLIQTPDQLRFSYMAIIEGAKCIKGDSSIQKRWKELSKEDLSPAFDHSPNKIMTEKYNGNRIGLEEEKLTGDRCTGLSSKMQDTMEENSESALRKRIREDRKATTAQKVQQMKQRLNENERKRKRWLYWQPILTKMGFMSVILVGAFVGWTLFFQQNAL

[2] = target: T2, Tyrosine-protein phosphatase non-receptor type 1 (Homo sapiens, UniProt P18031); experiment: Inhibition of human FLAG-tagged PTP1B catalytic domain (1 to 298) expressed in Escherichia coli using fluorescein diphosphate as substrate by fluorescence based method
T2 sequence (P18031 whole entry): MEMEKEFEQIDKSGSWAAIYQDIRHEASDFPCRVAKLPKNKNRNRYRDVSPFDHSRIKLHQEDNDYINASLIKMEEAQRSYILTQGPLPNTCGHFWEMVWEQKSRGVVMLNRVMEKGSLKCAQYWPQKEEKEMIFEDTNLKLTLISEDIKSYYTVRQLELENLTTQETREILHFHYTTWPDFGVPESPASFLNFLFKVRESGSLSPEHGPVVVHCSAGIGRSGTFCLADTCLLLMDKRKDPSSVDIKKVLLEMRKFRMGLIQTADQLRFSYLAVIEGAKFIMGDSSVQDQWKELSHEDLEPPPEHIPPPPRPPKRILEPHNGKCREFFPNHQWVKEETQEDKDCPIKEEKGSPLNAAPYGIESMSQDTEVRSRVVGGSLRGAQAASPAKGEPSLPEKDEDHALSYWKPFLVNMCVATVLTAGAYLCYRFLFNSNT

[3] = target: T2, Tyrosine-protein phosphatase non-receptor type 1; experiment: Inhibition of PTP1B (unknown origin) assessed as reduction in nitrophenol production using pNPP as substrate incubated for 30 mins by EnVisionMultilable plate reader based method
[4] = target: T1, Tyrosine-protein phosphatase non-receptor type 2; experiment: Inhibition of TCPTP (unknown origin) assessed as reduction in nitrophenol production using pNPP as substrate incubated for 30 mins by EnVisionMultilable plate reader based method
Homo sapiens [5] = species on record: Homo sapiens; experiment: Selectivity ratio of IC50 for TCPTP (unknown origin) using pNPP as substrate to IC50 for PTP1B (unknown origin) using pNPP as substrate
Homo sapiens [6] = species on record: Homo sapiens; experiment: Selectivity ratio of IC50 for TCPTP (unknown origin) to IC50 for human GST-tagged PTP1B
[7] = target: T3, Tyrosine-protein phosphatase non-receptor type 1 (Homo sapiens) (UniProt P18031); experiment: Competitive inhibition of PTP1B (unknown origin) assessed as increase in Km at 0 to 9.6 uM using varying levels of pNPP as substrate by Lineweaver-Burk plot analysis
T3 sequence (whole entry): T2 sequence (P18031 whole entry)

L02 = experiment: Cytotoxicity against human L02 cells assessed as reduction in cell viability after 72 hrs by WST1 assay; assay type: cell-based; details: L02, 72 h
[8] = target: T3, Tyrosine-protein phosphatase non-receptor type 1 (Homo sapiens); experiment: Competitive inhibition of PTP1B (unknown origin) assessed as change in V max at 0 to 9.6 uM using varying levels of pNPP as substrate by Lineweaver-Burk plot analysis
[9] = Cytotoxicity against human L02 cells assessed as cell viability at 1 to 250 uM after 72 hrs by WST1 assay; assay type: cell-based; details: read-out: Activity
[10] = target: T3, Tyrosine-protein phosphatase non-receptor type 1 (Homo sapiens); experiment: Competitive inhibition of PTP1B (unknown origin) assessed as increase in Km at 0 to 28.8 uM using varying levels of pNPP as substrate by Lineweaver-Burk plot analysis
[11] = target: T3, Tyrosine-protein phosphatase non-receptor type 1 (Homo sapiens); experiment: Competitive inhibition of PTP1B (unknown origin) assessed as change in V max at 0 to 28.8 uM using varying levels of pNPP as substrate by Lineweaver-Burk plot analysis

| SMILES | IC50 [3] [µM] | IC50 [4] [µM] | Ratio IC50 (Homo sapiens [5]) | other results |
| --- | --- | --- | --- | --- |
| COC(CC(C)C)c1ccc2ccc(-c3ccc(CC(Cc4ccc(C(F)(F)P(=O)(O)O)cc4)(c4ccccc4)n4nnc5ccccc54)cc3)c(P(=O)(O)O)c2n1 (configuration not stated) |  |  |  | IC50 [1]: 0.036 µM; IC50 [2]: 0.005 µM |
| COC(=O)C1=C(C(C)(C)C)NC(=S)N[C@H]1/C=C/c1ccc([N+](=O)[O-])cc1 | 11.4 | > 100 | > 8.79 |  |
| CC(C)OCc1cc(O)c(O)c(Br)c1Cc1cc(O)c(O)c(Br)c1Br |  |  |  | Ratio IC50 (Homo sapiens [6]): > 50 |
| COC(=O)C1=C(C(C)(C)C)NC(=S)N[C@H]1/C=C/c1ccc(Cl)cc1 | 6.65 | 54.8 | 8.24 |  |
| COC(=O)C1=C(C(C)C)NC(=S)N[C@H]1/C=C/c1ccc(Cl)cc1 | 7.12 | > 100 | > 14 | inhibition [7]: Active; IC50 (L02): > 250 µM; inhibition [8]: Active; viability at 72 h, up to 250 µM [9]: > 85% |
| COC(=O)C1=C(C(C)C)NC(=S)N[C@H]1/C=C/c1ccc(Br)cc1 | 6.28 | > 100 | > 15.9 |  |
| CCOC(=O)C1=C(C(C)C)NC(=S)N[C@H]1/C=C/c1ccc(C)cc1 | 7.49 | > 100 | > 13.3 |  |
| COC(=O)C1=C(C(C)C)NC(=S)N[C@H]1/C=C/c1ccc([N+](=O)[O-])cc1 | > 50 |  |  |  |
| CCOC(=O)C1=C(C(C)C)NC(=S)N[C@H]1/C=C/c1ccccc1 | > 50 |  |  |  |
| CCOC(=O)C1=C(C(C)C)NC(=S)N[C@H]1/C=C/c1ccc([N+](=O)[O-])cc1 | > 50 | > 100 |  |  |
| CC1(C)CC[C@]2(C(=O)O)CC[C@]3(C)C(=CC[C@@H]4[C@@]5(C)CC[C@H](O)C(C)(C)[C@@H]5CC[C@]43C)[C@@H]2C1 [OLEANOLIC_ACID] |  |  |  | viability at 72 h, up to 250 µM [9]: < 85% |
| CCOC(=O)C1=C(C(C)C)NC(=S)N[C@H]1/C=C/c1ccc(OC)cc1 | 2.38 | 40.4 | 17 |  |
| COC(=O)C1=C(C(C)C)NC(=S)N[C@H]1/C=C/c1ccccc1 | 18.6 | > 100 | > 5.39 |  |
| CCOC(=O)C1=C(C(C)C)NC(=S)N[C@H]1/C=C/c1ccc(Cl)cc1 | 4.79 | 35.8 | 7.47 |  |

Further lines, with some results ahead:

| IC50 [3] [µM] | IC50 [4] [µM] | Ratio IC50 (Homo sapiens [5]) | SMILES | other results |
| --- | --- | --- | --- | --- |
| > 50 |  |  | CCOC(=O)C1=C(C(C)C)NC(=S)N[C@H]1/C=C/c1ccc(F)cc1 |  |
| 11.3 | > 100 | > 8.85 | CCOC(=O)C1=C(C(C)C)NC(=S)N[C@H]1/C=C/c1ccc(Br)cc1 |  |
| 5.03 | > 100 | > 19.9 | COC(=O)C1=C(C(C)(C)C)NC(=S)N[C@H]1/C=C/c1ccc(OC)cc1 |  |
| 3.33 | > 100 | > 30 | COC(=O)C1=C(C(C)C)NC(=S)N[C@H]1/C=C/c1ccc(F)cc1 | IC50 (L02): > 250 µM; inhibition [10]: Active; inhibition [11]: Active; viability at 72 h, up to 250 µM [9]: > 85% |
| 16.3 | > 100 | > 6.13 | COC(=O)C1=C(C(C)(C)C)NC(=S)N[C@H]1/C=C/c1ccc(C)cc1 |  |
| 5.49 | > 100 | > 18.2 | COC(=O)C1=C(C(C)C)NC(=S)N[C@H]1/C=C/c1ccc(C(F)(F)F)cc1 |  |
| 6.31 | > 100 | > 15.8 | COC(=O)C1=C(C(C)(C)C)NC(=S)N[C@H]1/C=C/c1ccc(C(F)(F)F)cc1 |  |
| 11 | 36 | 3.28 | COC(=O)C1=C(C(C)(C)C)NC(=S)N[C@H]1/C=C/c1ccc(Br)cc1 |  |
| > 50 |  |  | COC(=O)C1=C(C(C)(C)C)NC(=S)N[C@H]1/C=C/c1ccc(F)cc1 |  |
| > 50 |  |  | COC(=O)C1=C(C(C)(C)C)NC(=S)N[C@H]1/C=C/c1ccccc1 |  |
| 10.3 | > 100 | > 9.66 | CCOC(=O)C1=C(C(C)C)NC(=S)N[C@H]1/C=C/c1ccc(C(F)(F)F)cc1 |  |
